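Growth conditions: 96-well plates. Treatment: test compound, 48 hours, 5 concentrations. Analysis: linear interpolation between bracketing concentrations; unreached endpoints set to highest concentration. GI50: concentration for 50% inhibition of growth.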 Activity calls are given as the source filed them. No stated cut-off is given here; in the data, active = GI50 up to about 1.1 µM and inactive = higher.
Key:
Assay in all cases: growth of human tumour cells (NCI), 48 h
786-0 = tested on: 786-0
CAKI-1 = tested on: CAKI-1
HCC 2998 = tested on: HCC 2998
HL-60 = tested on: HL-60
HOP-92 = tested on: HOP-92
M14 = tested on: M14
MOLT-4 = tested on: MOLT-4
NCI-H460 = tested on: NCI-H460
NCI/ADR-RES = tested on: NCI/ADR-RES
OVCAR-3 = tested on: OVCAR-3
OVCAR-5 = tested on: OVCAR-5
OVCAR-8 = tested on: OVCAR-8
RXF 393 = tested on: RXF 393
SF-539 = tested on: SF-539
SK-MEL-28 = tested on: SK-MEL-28
SK-MEL-2 = tested on: SK-MEL-2
SK-OV-3 = tested on: SK-OV-3
SNB-75 = tested on: SNB-75
UO-31 = tested on: UO-31
HOP-62 = tested on: HOP-62

Row | SMILES | GI50 (786-0) | GI50 (CAKI-1) | GI50 (HCC 2998) | GI50 (HL-60) | GI50 (HOP-92) | GI50 (M14) | GI50 (MOLT-4) | GI50 (NCI-H460) | GI50 (NCI/ADR-RES) | GI50 (OVCAR-3) | GI50 (OVCAR-5) | GI50 (OVCAR-8) | GI50 (RXF 393) | GI50 (SF-539) | GI50 (SK-MEL-28) | GI50 (SK-MEL-2) | GI50 (SK-OV-3) | GI50 (SNB-75) | GI50 (UO-31) | GI50 (HOP-62)
1 | CC1C2(C)OC(=N)C(C#N)(C(C)O2)C1(C#N)C#N (centres undefined) | 22 µM (inactive) | 13.6 µM (inactive) | 20.4 µM (inactive) | 14.1 µM (inactive) | 16.9 µM (inactive) | 18.3 µM (inactive) | 36 µM (inactive) | 19.6 µM (inactive) | 77.1 µM (inactive) | 24.5 µM (inactive) | 30.5 µM (inactive) | 31 µM (inactive) | 18.2 µM (inactive) | 22.1 µM (inactive) | 27.4 µM (inactive) | 19.9 µM (inactive) | > 100 µM (inactive) | > 100 µM (inactive) | 42.9 µM (inactive) | 
2 | Cn1c(=O)[nH]c2[nH]c3ccccc3c2c1=O | > 100 µM (inactive) | > 100 µM (inactive) | > 100 µM (inactive) | > 100 µM (inactive) | > 100 µM (inactive) | > 100 µM (inactive) | > 100 µM (inactive) |  | > 100 µM (inactive) | > 100 µM (inactive) | > 100 µM (inactive) | > 100 µM (inactive) | > 100 µM (inactive) | > 100 µM (inactive) | > 100 µM (inactive) | > 100 µM (inactive) | > 100 µM (inactive) | 32.1 µM (inactive) | > 100 µM (inactive) | > 100 µM (inactive)
3 | COC(=O)c1ccc2c(c1)S/C(=C/c1ccc3ccc4cccc5ccc1c3c45)S2 | > 100 µM (inactive) | 40.1 µM (inactive) | 89.3 µM (inactive) | 20.7 µM (inactive) | 43.5 µM (inactive) | 32.1 µM (inactive) | > 100 µM (inactive) | 64.4 µM (inactive) | 23.7 µM (inactive) | 23.2 µM (inactive) | > 100 µM (inactive) | 31.6 µM (inactive) | 50.4 µM (inactive) | > 100 µM (inactive) |  | > 100 µM (inactive) | > 100 µM (inactive) | 17.3 µM (inactive) | > 100 µM (inactive) | 37.1 µM (inactive)
4 | C1OCN2c3nonc3N3COCN4c5nonc5N1C2C43 (centres undefined) | > 100 µM (inactive) | > 100 µM (inactive) | 68.4 µM (inactive) | 83.4 µM (inactive) | > 100 µM (inactive) | > 100 µM (inactive) | 50.1 µM (inactive) | > 100 µM (inactive) | > 100 µM (inactive) | > 100 µM (inactive) | > 100 µM (inactive) | > 100 µM (inactive) | > 100 µM (inactive) | > 100 µM (inactive) | > 100 µM (inactive) | > 100 µM (inactive) | > 100 µM (inactive) | > 100 µM (inactive) | > 100 µM (inactive) | 
5 | O=[N+]([O-])c1ccc(N/N=C(\c2ccccc2)c2ccccn2)nc1 | 0.906 µM (active) | 0.497 µM (active) | 5.46 µM (inactive) | < 0.01 µM (active) | 10.5 µM (inactive) | 0.182 µM (active) |  | 0.957 µM (active) | 0.658 µM (active) | 0.409 µM (active) | 14.4 µM (inactive) | 0.914 µM (active) | 5.56 µM (inactive) | 1.52 µM (inactive) | 9.14 µM (inactive) | 14.8 µM (inactive) | 4.86 µM (inactive) | 7.06 µM (inactive) | 0.817 µM (active) | 8.57 µM (inactive)
6 | CC(C)(C)c1ccc2c(c1)CNCCNCc1cc(C(C)(C)C)ccc1OCC1(CO2)COc2ccc(C(C)(C)C)cc2CNCCNCc2cc(C(C)(C)C)ccc2OC1 | 0.25 µM (active) | 1.41 µM (inactive) | 0.335 µM (active) | 0.179 µM (active) | 1.26 µM (inactive) | 0.467 µM (active) | 0.225 µM (active) | 0.276 µM (active) | 1.63 µM (inactive) | 1.61 µM (inactive) | 1.72 µM (inactive) | 0.935 µM (active) | 1.42 µM (inactive) | 0.933 µM (active) | 1.71 µM (inactive) | 1.51 µM (inactive) | 1.84 µM (inactive) | 1.51 µM (inactive) | 1.8 µM (inactive) | 1.66 µM (inactive)
7 | C/C(=N\NC(=S)N1CCN(c2ccccn2)CC1)c1ncccn1 | 0.0601 µM (active) | 1.76 µM (inactive) | 0.361 µM (active) | 0.00752 µM (active) | 1.63 µM (inactive) | 0.0515 µM (active) | 0.0116 µM (active) | 0.0726 µM (active) | 0.0179 µM (active) |  | 0.0303 µM (active) | 0.0289 µM (active) | 1.65 µM (inactive) | 0.527 µM (active) | 0.417 µM (active) | 0.31 µM (active) | 0.284 µM (active) | 3.43 µM (inactive) | 0.993 µM (active) | 0.106 µM (active)
8 | NNC(=O)c1ccccc1NC(=O)/C(=C/c1ccccc1)NC(=O)c1ccccc1 | > 100 µM (inactive) | > 100 µM (inactive) | > 100 µM (inactive) | 76.9 µM (inactive) | > 100 µM (inactive) | 81.1 µM (inactive) | > 100 µM (inactive) | 80 µM (inactive) | 56.8 µM (inactive) | > 100 µM (inactive) | > 100 µM (inactive) | > 100 µM (inactive) | > 100 µM (inactive) | > 100 µM (inactive) | > 100 µM (inactive) | > 100 µM (inactive) | > 100 µM (inactive) | 70.1 µM (inactive) | 65.3 µM (inactive) | 49.1 µM (inactive)
9 | COc1c(C)c(OC)c2c(c1O)[C@@H]1[C@@H]3Cc4c(OC)c(C)c(OC)c(O)c4[C@H](CNC(=O)c4ccc5ccccc5n4)N3[C@@H](C#N)[C@H](C2)N1C | 0.000494 µM (active) | 0.00401 µM (active) | 0.00014 µM (active) | 0.000363 µM (active) | 0.000363 µM (active) | 0.000659 µM (active) | 0.00016 µM (active) | 0.00224 µM (active) | 0.0101 µM (active) | 0.000235 µM (active) | 0.000726 µM (active) | 0.00181 µM (active) | 0.00136 µM (active) | 0.0017 µM (active) | 0.00251 µM (active) | 0.000296 µM (active) |  | 0.00262 µM (active) | 0.00227 µM (active) | 0.00112 µM (active)
10 | CCOC(=O)C(C(N)=O)C1=Nc2cc([N+](=O)[O-])ccc2N/C1=C\C(=O)c1ccccc1 (centres undefined) | 11.4 µM (inactive) | 22.9 µM (inactive) | 10.1 µM (inactive) | 8.93 µM (inactive) | 15.4 µM (inactive) | 14.7 µM (inactive) |  | 13.4 µM (inactive) | 16.8 µM (inactive) | 10.3 µM (inactive) | 24 µM (inactive) | 16.4 µM (inactive) | 17.7 µM (inactive) | 15.1 µM (inactive) | 25.6 µM (inactive) | 15.3 µM (inactive) | 14.1 µM (inactive) | 17.7 µM (inactive) | 19.5 µM (inactive) | 10.9 µM (inactive)
11 | Cc1ccc(Nc2nc(N)nc3c2ncn3C2OC(CO)C(O)C2O)cc1 (centres undefined) | > 100 µM (inactive) | > 100 µM (inactive) | > 100 µM (inactive) | > 100 µM (inactive) | > 100 µM (inactive) | > 100 µM (inactive) | > 100 µM (inactive) |  | > 100 µM (inactive) | > 100 µM (inactive) | > 100 µM (inactive) | > 100 µM (inactive) | > 100 µM (inactive) | > 100 µM (inactive) | > 100 µM (inactive) | > 100 µM (inactive) | > 100 µM (inactive) | > 100 µM (inactive) | > 100 µM (inactive) | > 100 µM (inactive)
12 | Cc1nn(C(=O)c2ccc(Cl)cc2)c2c1C(c1cccc([N+](=O)[O-])c1)SC(=N)N2 (centres undefined) | > 10 µM (inactive) | > 10 µM (inactive) | > 10 µM (inactive) | > 10 µM (inactive) | > 10 µM (inactive) | > 10 µM (inactive) | > 10 µM (inactive) | > 10 µM (inactive) | > 10 µM (inactive) | > 10 µM (inactive) | > 10 µM (inactive) | > 10 µM (inactive) | > 10 µM (inactive) | > 10 µM (inactive) | > 10 µM (inactive) | > 10 µM (inactive) | > 10 µM (inactive) | > 10 µM (inactive) |  | > 10 µM (inactive)
13 | Cc1cn(C2CC(O)C(COP(=O)(O)OC3CC(n4c[n+]([BH2-]C#N)c5c(=O)[nH]c(N)nc54)OC3CO)O2)c(=O)[nH]c1=O (centres undefined) | > 100 µM (inactive) | > 100 µM (inactive) | > 100 µM (inactive) | > 100 µM (inactive) | > 100 µM (inactive) |  | > 100 µM (inactive) | > 100 µM (inactive) | > 100 µM (inactive) | > 100 µM (inactive) | > 100 µM (inactive) | > 100 µM (inactive) | > 100 µM (inactive) | > 100 µM (inactive) | > 100 µM (inactive) | > 100 µM (inactive) | > 100 µM (inactive) | > 100 µM (inactive) | > 100 µM (inactive) | > 100 µM (inactive)
14 | c1ccc(-c2nc(-c3ccccc3)c(-c3ccccc3)[nH]2)cc1 | 54 µM (inactive) | > 100 µM (inactive) | > 100 µM (inactive) | 18.1 µM (inactive) | > 100 µM (inactive) | > 100 µM (inactive) | > 35.8 µM (inactive) | 44.9 µM (inactive) | 60.3 µM (inactive) | > 100 µM (inactive) | > 100 µM (inactive) | > 66.1 µM (inactive) | > 100 µM (inactive) | > 100 µM (inactive) | > 100 µM (inactive) | > 100 µM (inactive) | > 100 µM (inactive) | 75 µM (inactive) | > 100 µM (inactive) | > 85.5 µM (inactive)

Source: ChEMBL document CHEMBL1201862, “PubChem BioAssay data set” (2004)
